The target in test [1] is T1, RNA-binding protein pos-1 (Caenorhabditis elegans, UniProt G5EF15).
T1 sequence (G5EF15 whole entry): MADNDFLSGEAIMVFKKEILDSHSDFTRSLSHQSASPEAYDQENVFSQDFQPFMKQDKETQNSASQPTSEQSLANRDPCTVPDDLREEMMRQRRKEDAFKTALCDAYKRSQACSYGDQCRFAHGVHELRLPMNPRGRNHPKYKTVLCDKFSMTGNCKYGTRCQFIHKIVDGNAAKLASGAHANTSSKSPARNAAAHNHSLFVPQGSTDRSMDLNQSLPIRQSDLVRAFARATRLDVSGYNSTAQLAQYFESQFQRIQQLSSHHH
The experiment in a line: inhibitors of POS-1/mex-3 RNA binding, dose response, biochemical, fluorescence polarization (AID 1964).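 Note: purified POS-1 fused to maltose binding protein made in E. coli; potency of compounds blocking POS-1 binding to fluorescent RNA.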 A general note: Fluorescence polarisation rises when a labelled molecule tumbles more slowly, as on binding a larger partner.

For test [2], the target named is T2, Zinc finger protein mex-5 (Caenorhabditis elegans, UniProt Q9XUB2).
T2 sequence (Q9XUB2 whole entry): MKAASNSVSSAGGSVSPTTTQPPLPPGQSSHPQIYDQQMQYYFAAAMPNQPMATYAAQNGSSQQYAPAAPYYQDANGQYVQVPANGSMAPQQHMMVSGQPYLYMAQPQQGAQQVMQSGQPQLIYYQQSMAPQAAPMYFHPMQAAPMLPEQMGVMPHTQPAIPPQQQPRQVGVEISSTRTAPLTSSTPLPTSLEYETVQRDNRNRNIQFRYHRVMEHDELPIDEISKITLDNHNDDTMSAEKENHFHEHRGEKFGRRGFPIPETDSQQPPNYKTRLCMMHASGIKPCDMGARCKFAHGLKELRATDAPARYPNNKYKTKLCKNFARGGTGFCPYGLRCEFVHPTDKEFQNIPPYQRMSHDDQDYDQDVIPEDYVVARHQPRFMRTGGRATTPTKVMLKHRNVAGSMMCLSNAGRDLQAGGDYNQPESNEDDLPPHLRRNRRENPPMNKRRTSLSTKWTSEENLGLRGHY
The experiment in a line: MEX-5/TCR-2 RNA interaction inhibitors, dose response, biochemical, C. elegans, fluorescence polarization (AID 1960).

Test [3] addresses Cytochrome P450 2C9 (Homo sapiens, UniProt P11712).
Test [4] addresses Luciferin 4-monooxygenase (Photinus pyralis, UniProt P08659). The experiment in a line: firefly luciferase enzyme inhibitors, dose response, biochemical, luminescence (AID 1891).
A short description of test [5]: Luminescence Cell-Based Dose Confirmation HTS to Identify Inhibitors of Platelet Dense Granule Release. [Related pubchem assays: 1663 (Primary HTS), 1678 (Summary of Project)]. In kind it is functional.
Test [6] relates to INS1. The experiment in a line: beta cell apoptosis inhibitors, cytokine rescue, dose response, luminescence, retest (AID 449756).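 Note: cell death triggered by IL-1 beta plus TNF-alpha plus IFN-gamma mixture; protective hits raise ATP signal compared with cytokine alone wells.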 In kind it is functional, cell-based. To be noted: Rattus norvegicus.
The target in test [7] is Cytochrome P450 2D6 (Homo sapiens, UniProt P10635).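 Note: CYP2D6 member of a cytochrome P450 panel assay.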
Sequence of Cytochrome P450 2D6 (P10635 whole entry): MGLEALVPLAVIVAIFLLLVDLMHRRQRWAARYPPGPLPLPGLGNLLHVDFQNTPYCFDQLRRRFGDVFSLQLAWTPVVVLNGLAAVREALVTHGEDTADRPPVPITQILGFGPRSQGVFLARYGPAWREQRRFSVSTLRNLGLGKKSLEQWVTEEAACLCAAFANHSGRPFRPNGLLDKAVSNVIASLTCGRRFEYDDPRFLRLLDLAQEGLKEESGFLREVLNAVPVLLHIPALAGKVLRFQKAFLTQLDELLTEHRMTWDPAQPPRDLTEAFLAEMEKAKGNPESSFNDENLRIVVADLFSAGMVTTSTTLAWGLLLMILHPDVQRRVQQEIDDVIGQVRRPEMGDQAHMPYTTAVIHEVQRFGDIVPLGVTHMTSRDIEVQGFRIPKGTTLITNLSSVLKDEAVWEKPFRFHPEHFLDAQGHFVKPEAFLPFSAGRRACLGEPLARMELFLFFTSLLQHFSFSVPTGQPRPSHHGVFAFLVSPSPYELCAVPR
Test [8] concerns the target T3, Cytochrome P450 1A2 (Homo sapiens, UniProt P05177).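 Note: PubChem cytochrome P450 panel assay, CYP1A2 panel member.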
T3 sequence (P05177 whole entry): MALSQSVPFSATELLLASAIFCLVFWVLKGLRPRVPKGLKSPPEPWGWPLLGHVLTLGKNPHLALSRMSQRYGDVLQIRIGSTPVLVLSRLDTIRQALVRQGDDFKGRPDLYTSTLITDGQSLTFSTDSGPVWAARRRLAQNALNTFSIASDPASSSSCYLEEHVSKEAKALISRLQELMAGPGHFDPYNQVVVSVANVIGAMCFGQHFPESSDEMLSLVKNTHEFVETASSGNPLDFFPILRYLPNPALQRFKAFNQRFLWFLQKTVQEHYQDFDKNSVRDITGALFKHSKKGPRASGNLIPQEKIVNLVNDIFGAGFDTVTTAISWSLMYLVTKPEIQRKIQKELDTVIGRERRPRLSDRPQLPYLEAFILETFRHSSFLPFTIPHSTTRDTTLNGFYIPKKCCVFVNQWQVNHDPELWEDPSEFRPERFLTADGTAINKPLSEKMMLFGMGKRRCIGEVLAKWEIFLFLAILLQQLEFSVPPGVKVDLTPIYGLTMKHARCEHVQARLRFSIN

Test [9] in a line: Luminescence Cell-Based Dose Response HTS to Identify Activators of Luciferase Translation or Activity in H4 […] Cells. [Related pubchem assays: 1829 (Project Summary), 1814 (Primary HTS)]. In kind it is functional.
Test [10] has as its system H4. The experiment in a line: Luminescence Cell-Based Dose Response HTS to Identify Activators of 5'UTR Stem-Loop Driven Prion Protein mRNA Translation in H4 Neuroglioblastoma Cells. [Related pubchem assays: 1829 (Project Summary), 1814 (Primary HTS)]. It is filed as functional. The conditions noted are these: Homo sapiens.
Test [11] deals with Cytochrome P450 2C19 (Homo sapiens, UniProt P33261). The experiment in a line: Cytochrome panel assay with activity outcomes. Panel member name: p450-cyp2c19 Compounds with AC50 equal or less than 10 uM are considered active. It is filed as functional. To be noted: read-out: AC50.
Sequence of Cytochrome P450 2C19 (P33261 whole entry): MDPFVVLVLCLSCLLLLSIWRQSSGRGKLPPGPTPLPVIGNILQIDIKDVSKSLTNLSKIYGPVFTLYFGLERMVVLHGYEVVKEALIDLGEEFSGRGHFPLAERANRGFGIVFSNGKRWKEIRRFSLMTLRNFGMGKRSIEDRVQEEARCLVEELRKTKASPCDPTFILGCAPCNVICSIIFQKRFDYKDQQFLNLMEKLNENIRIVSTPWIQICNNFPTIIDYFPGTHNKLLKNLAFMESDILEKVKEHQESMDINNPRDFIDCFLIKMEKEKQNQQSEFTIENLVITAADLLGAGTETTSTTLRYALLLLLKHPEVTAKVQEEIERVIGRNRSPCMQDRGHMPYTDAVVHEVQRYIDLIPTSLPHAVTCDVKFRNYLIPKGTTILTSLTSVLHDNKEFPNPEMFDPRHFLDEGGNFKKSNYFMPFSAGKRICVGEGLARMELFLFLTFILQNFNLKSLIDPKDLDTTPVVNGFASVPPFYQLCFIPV

From ChEMBL document CHEMBL1201862, “PubChem BioAssay data set” (2004) come the findings set out here.

Each structure is given as a SMILES string. Calls of active or inactive are those of the source.

Sequence of Luciferin 4-monooxygenase (P08659 whole entry): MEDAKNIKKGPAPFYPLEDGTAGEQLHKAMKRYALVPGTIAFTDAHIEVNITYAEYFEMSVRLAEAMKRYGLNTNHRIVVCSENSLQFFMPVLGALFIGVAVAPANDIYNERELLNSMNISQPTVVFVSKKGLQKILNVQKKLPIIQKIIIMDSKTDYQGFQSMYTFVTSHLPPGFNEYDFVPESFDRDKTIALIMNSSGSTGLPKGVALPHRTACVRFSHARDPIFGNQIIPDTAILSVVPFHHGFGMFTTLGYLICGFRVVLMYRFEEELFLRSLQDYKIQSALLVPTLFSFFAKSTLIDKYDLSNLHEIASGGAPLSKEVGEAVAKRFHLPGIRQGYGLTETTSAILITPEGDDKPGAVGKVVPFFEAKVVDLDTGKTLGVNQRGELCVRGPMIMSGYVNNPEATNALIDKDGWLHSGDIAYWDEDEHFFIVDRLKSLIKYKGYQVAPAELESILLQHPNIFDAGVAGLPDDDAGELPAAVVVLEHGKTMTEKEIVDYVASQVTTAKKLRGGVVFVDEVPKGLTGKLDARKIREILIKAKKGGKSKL
Sequence of Cytochrome P450 2C9 (P11712 whole entry): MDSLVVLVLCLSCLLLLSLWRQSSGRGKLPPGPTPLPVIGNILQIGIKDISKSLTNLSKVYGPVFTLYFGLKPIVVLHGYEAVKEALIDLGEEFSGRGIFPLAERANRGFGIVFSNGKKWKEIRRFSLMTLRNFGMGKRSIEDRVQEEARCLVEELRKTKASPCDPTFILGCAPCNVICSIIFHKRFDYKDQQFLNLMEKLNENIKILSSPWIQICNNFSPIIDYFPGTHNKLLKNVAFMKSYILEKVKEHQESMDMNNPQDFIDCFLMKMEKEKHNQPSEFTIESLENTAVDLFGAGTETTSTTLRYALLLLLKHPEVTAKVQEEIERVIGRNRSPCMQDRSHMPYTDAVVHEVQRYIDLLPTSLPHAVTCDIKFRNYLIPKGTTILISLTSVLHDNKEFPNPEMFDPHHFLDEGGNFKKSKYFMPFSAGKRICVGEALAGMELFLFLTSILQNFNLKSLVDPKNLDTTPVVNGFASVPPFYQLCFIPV

As a reminder, the EC50 is the midpoint of the concentration-response curve. `Cc1cc(/C=C2\C(=O)NC(=O)N(c3ccc(Cl)cc3)C2=O)c(C)n1C`: in test [1], the concentration giving a half-maximal response (EC50) is 63.5 µM (active).

For the compound `Cc1ccc(C(=O)C2=C(O)C(=O)N(Cc3ccco3)C2c2ccc(N(C)C)cc2)o1` (centres undefined), the EC50 in test [1] and in [2] was > 300 µM (not active) each time. What is called AC50 is the concentration giving half of the maximal activity seen. Consider `COc1cc(CNCc2cccs2)cc(Br)c1OC`, for which the concentration at half-maximal activity (AC50) in test [3] is 1.41 µM (inconclusive). As for `O=c1c(CCc2ccccc2)nc2cnc(Nc3ccccc3)nc2n1C[C@H]1CCCO1`, the AC50 in test [3] was 20 µM (inconclusive).

On to `CCCCCN1C=CC=C/C1=C\C=C(C#N)C#N`, for which the concentration for a half-maximal effect (EC50) in test [1] is 30.3 µM (inconclusive); in [2] it was > 300 µM (not active). Take `Cc1n[nH]c(NNC(=O)c2ccccc2)c1[N+](=O)[O-]`: the EC50 is 15.2 µM (active) in [1] and 4.96 µM (active) in test [2].

In the case of `CCOC(=O)C1=C(CNCc2ccc(F)cc2)NC(=O)NC1c1cccc([N+](=O)[O-])c1` (centres undefined), the EC50 in test [4] and in test [5] was > 112 µM (not active) in each case.

Consider `N#Cc1c(Nc2ccccc2)sc(C(=O)c2ccc(F)cc2)c1N`, for which the AC50 in test [6] was 20.9 µM (active). `N#Cc1ccc(C(=O)Nc2nc(-c3cccs3)c(C(=O)C(F)(F)F)s2)cc1`: the AC50 in [6] is 4.75 µM (active). Regarding `O=c1oc(Nc2ccc(F)cc2)nc2ccccc12`, the EC50 in test [4] is 8.06 µM (active); in [5], 4.03 µM (active). Take `CC1CN(c2nc3ccccc3nc2C(C#N)C(=O)NC2CCCCC2)CC(C)O1` (centres undefined): the figures for the EC50 in test [1] and in [2] were > 300 µM (not active) and > 300 µM (inconclusive), respectively.

With `COc1cc(OC)c(C2C(C#N)=C(N)OC3=C2C(=O)CC(C)(C)C3)cc1OC` (centres undefined), the EC50 in [1] and in test [2] was > 300 µM (not active) throughout.

As for `O=C(Cn1cc(C(=O)C(F)(F)F)c2ccccc21)NCc1ccco1`, the EC50 in test [4] and in [5] was > 112 µM (not active) throughout. In the case of `O=c1cnc2cncnc2n1Cc1ccccc1Cl`, the AC50 in [7] is 20 µM (inconclusive); in [8] it was 15.8 µM (inconclusive); in [3] it was 20 µM (inconclusive). As for `COc1ccc(NC(=O)c2sc3nc(-c4cccnc4)ccc3c2N)cc1`, the EC50 was 40.6 µM (inconclusive) in test [1] and 4.79 µM (active) in test [2].

Turning to `COC(=O)C1CSc2[nH]c(=O)sc2C1c1ccccc1` (centres undefined), the EC50 is 7.13 µM (active) in [1] and 7.46 µM (active) in test [2].

Regarding `COc1cccc(C(=O)NCC2CCN(c3ccc(S(=O)(=O)N4CCOCC4)cc3)CC2)c1`, the EC50 in test [1] and in test [2] was > 300 µM (not active) each time. For `N#Cc1cc2c(nc1SCC(=O)Nc1sc3c(c1C#N)CCC3)CCCC2`, the EC50 in test [9] is > 120 µM (not active); in test [10], 16 µM (active). Regarding `O=c1cnc2cnc(Oc3cccc(Cl)c3)nc2n1C[C@H]1CCCO1`, the concentration at half-maximal activity (AC50) in [11] was 39.8 µM (inconclusive); in test [3], 15.8 µM (inconclusive). Consider `COc1cccc(-c2cncnc2NCCc2c[nH]c3ccc(OC)cc23)c1`, for which, in test [3], the AC50 is 0.1 µM (inconclusive).

On to `Cc1ccccc1Oc1cc(NC(=O)CCCn2nc(C)c([N+](=O)[O-])c2C)cc([N+](=O)[O-])c1`, for which the AC50 in test [6] is 6.96 µM (active). For the compound `c1ccc(C(c2ccccc2)N2CC[C@@]3(CCCNC3)C2)cc1`, in test [3], the AC50 is 31.6 µM (inconclusive). Turning to `O=C(CN1C(=O)c2cccc3cccc1c23)N1CCN(c2ccc(F)cc2)CC1`, the EC50 in test [4] and in [5] was > 112 µM (not active) in each case.

Take `Cc1c(C(=O)N2CCCCC2)c(S(=O)(=O)N(C)Cc2ccccc2)c(C)n1C`: the EC50 in test [4] and in test [5] was > 112 µM (not active) throughout. With `COc1ccc2[nH]cc(CCNc3nc(-c4ccc(C(=O)N(C)C)cc4)nc4ccccc34)c2c1`, the values for the concentration at half-maximal activity (AC50) in test [7] and in test [3] were 20 µM (inconclusive) and 1 µM (inconclusive), respectively. As for `CC(Sc1nnc(C(C)N(C)C)n1-c1ccc(Cl)cc1)C(=O)Nc1ccc2c(c1)OCO2` (centres undefined), the AC50 in [3] is 15.8 µM (inconclusive). `CN(C)CCCN/C=C1\C(=O)NC(=O)N(CCc2ccc(F)cc2)C1=O`: the concentration for a half-maximal effect (EC50) in test [1] and in test [2] was > 300 µM (not active) each time.

Take `COCCNC(=O)CSc1ncnc2sccc12`: the AC50 in test [3] is 28.2 µM (inconclusive). As to `CCn1c(=O)c([N+](=O)[O-])c(NCCc2ccc(OC)c(OC)c2)c2ccccc21`, the EC50 in test [4] and in [5] was > 112 µM (not active) each time. `CCCCc1ccc(Nc2nc(N3CCOCC3)nc(N3CCOCC3)n2)cc1`: the EC50 in test [4] and in test [5] was > 112 µM (not active) each time. Take `Cc1cc(C)n(C(=O)CCCCCCCCC(=O)n2nc(C)cc2C)n1`: the AC50 is 15.8 µM (inconclusive) in test [8] and 0.251 µM (inconclusive) in test [3]. As for `COc1cccc(-c2nc(C[S+]([O-])CC(=O)NCCc3ccc(C)cc3)c(C)o2)c1` (centres undefined), the EC50 in test [4] and in test [5] was > 112 µM (not active) throughout. In the case of `COc1ccc(N2CCN(S(=O)(=O)c3c(C)nc4sccn4c3=O)CC2)cc1`, the EC50 in test [4] and in [5] was > 112 µM (not active) in each case. For `O=C1CC(=O)C(n2cncn2)C(c2cccc(Cl)c2)C1` (centres undefined), the values for the AC50 in test [11] and in test [3] were 3.98 µM (inconclusive) and 25.1 µM (inconclusive), respectively. As to `COc1cccc(/C=N/NC(=O)c2cc(-c3ccccn3)nc3ccccc23)c1O`, in test [6], the AC50 was 1.8 µM (active).

For `O=c1sc(/C=N/Nc2ccccc2)c(Cl)n1Cc1ccccc1`, the EC50 is > 120 µM (not active) in test [9] and 21.4 µM (active) in [10]. Regarding `COc1cccc(C(=O)Nc2ccc(-c3nnc(-c4ccco4)o3)cc2)c1`, the AC50 in test [11] is 2.82 µM (inconclusive); in test [3], 1.41 µM (inconclusive).
